{"source": "patent US6355799B1", "about": "“Substituted benzene compounds, process for their preparation, and herbicidal and defoliant compositions containing them” (ISK Americas Incorporated, priority 1997, dated 2002)", "type_in_all_cases": "in vivo", "key": {"[1]": {"tested_on": "field corn (Zea mays L., var. Dekalb 535, CORN)", "test": "Pre-emerge test, crop safety", "settings": "crop damage, pre-emerge, phytotoxicity rating 0-100 at 14 days after application", "how_it_was_run": "(§1)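 Sandy loam pots; pre-emerge: sown 1 d pre-spray, surface-watered after, then bottom-watered. Post-emerge: sown 8–21 d before, 2–3 leaf stage, + 0.25% v/v NIS, bottom-watered. Acetone, 187 l/ha track spray, 15–1000 g ai/ha. 0–100 injury score, day 14.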"}, "[2]": {"tested_on": "upland rice (Oryza sp., var. Tebonnet, RICE)", "test": "Pre-emerge test, crop safety", "settings": "crop damage, pre-emerge, phytotoxicity rating 0-100 at 14 days after application", "how_it_was_run": "as §1"}, "[3]": {"tested_on": "field corn (Zea mays L., var. Dekalb 535, CORN)", "test": "Post-emerge test, crop safety", "settings": "post-emerge, crop damage rating 0-100 at 14 days after application", "how_it_was_run": "(§2)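 Compounds in acetone were track-sprayed at 15-1000 g ai/ha (187 l/ha) on sandy loam pots: pre-emerge one day after seeding, post-emerge at 2-3 leaf stage with 0.25% v/v non-ionic surfactant. Phytotoxicity was rated 14 days later on a 0 (no damage) to 100 (complete death) scale.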"}, "[4]": {"tested_on": "upland rice (Oryza sp., var. Tebonnet, RICE)", "test": "Post-emerge test, crop safety", "settings": "post-emerge, crop damage rating 0-100 at 14 days after application", "how_it_was_run": "as §2"}, "[5]": {"tested_on": "green foxtail (Setaria viridis, SETVI)", "test": "Post-emerge test, greenhouse herbicide activity screening", "settings": "post-emerge, phytotoxicity rating 0-100 at 14 days after application", "how_it_was_run": "(§3)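 Visual ratings on a 0-100 scale (0 no damage, 100 all plants dead) were taken at 14 days after treatment. Rates of 15-1000 g ai/ha in acetone, 187 l/ha, were sprayed onto soil one day after planting (pre-emerge) or onto 2-3 leaf plants with 0.25% v/v surfactant (post-emerge).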"}, "[6]": {"tested_on": "sicklepod (Cassia obtusifolia, CASOB)", "test": "Post-emerge test, greenhouse herbicide activity screening", "settings": "post-emerge, phytotoxicity rating 0-100 at 14 days after application", "how_it_was_run": "as §3"}, "[7]": {"tested_on": "redroot pigweed (Amaranthus retroflexus, AMARE)", "test": "Post-emerge test, greenhouse herbicide activity screening", "settings": "post-emerge, phytotoxicity rating 0-100 at 14 days after application", "how_it_was_run": "as §3"}, "[8]": {"tested_on": "common ragweed (Ambrosia artemisizfolia L., AMBEL)", "test": "Post-emerge test, greenhouse herbicide activity screening", "settings": "post-emerge, phytotoxicity rating 0-100 at 14 days after application", "how_it_was_run": "as §3"}, "[9]": {"tested_on": "johnsongrass (Sorghum halepense, SORHA)", "test": "Post-emerge test, greenhouse herbicide activity screening", "settings": "post-emerge, phytotoxicity rating 0-100 at 14 days after application", "how_it_was_run": "as §3"}, "[10]": {"tested_on": "velvetleaf (Abutilon theophrasti, ABUTH)", "test": "Post-emerge test, greenhouse herbicide activity screening", "settings": "post-emerge, phytotoxicity rating 0-100 at 14 days after application", "how_it_was_run": "as §3"}, "[11]": {"tested_on": "ivyleaf morningglory (Ipomoea hederacea, IPOHE)", "test": "Post-emerge test, greenhouse herbicide activity screening", "settings": "post-emerge, phytotoxicity rating 0-100 at 14 days after application", "how_it_was_run": "as §3"}, "[12]": {"tested_on": "lambsquarters (Chenopodium album, CHEAL)", "test": "Post-emerge test, greenhouse herbicide activity screening", "settings": "post-emerge, phytotoxicity rating 0-100 at 14 days after application", "how_it_was_run": "as §3"}, "[13]": {"tested_on": "barnyardgrass (Echinochloa crus-galli, ECHCG)", "test": "Post-emerge test, greenhouse herbicide activity screening", "settings": "post-emerge, phytotoxicity rating 0-100 at 14 days after application", "how_it_was_run": "as §3"}, "[14]": {"tested_on": "large crabgrass (Digitaria sanguinalis, DIGSA)", "test": "Post-emerge test, greenhouse herbicide activity screening", "settings": "post-emerge, phytotoxicity rating 0-100 at 14 days after application", "how_it_was_run": "as §3"}, "[15]": {"tested_on": "redroot pigweed (Amaranthus retroflexus, AMARE)", "test": "Pre-emerge test, greenhouse herbicide activity screening", "settings": "pre-emerge, phytotoxicity rating 0-100 at 14 days after application", "how_it_was_run": "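Compounds in acetone were track-sprayed at 187 l/ha, 15–1000 g ai/ha, onto sandy loam pots. Pre-emerge seeds were sown one day before spraying, with surface watering afterwards. Post-emerge plants were at the 2–3 leaf stage and sprayed with 0.25% v/v non-ionic surfactant. Injury was rated 0–100 at 14 days.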"}, "[16]": {"tested_on": "green foxtail (Setaria viridis, SETVI)", "test": "Pre-emerge test, greenhouse herbicide activity screening", "settings": "pre-emerge, phytotoxicity rating 0-100 at 14 days after application", "how_it_was_run": "as §2"}, "[17]": {"tested_on": "sicklepod (Cassia obtusifolia, CASOB)", "test": "Pre-emerge test, greenhouse herbicide activity screening", "settings": "pre-emerge, phytotoxicity rating 0-100 at 14 days after application", "how_it_was_run": "as §2"}, "[18]": {"tested_on": "johnsongrass (Sorghum halepense, SORHA)", "test": "Pre-emerge test, greenhouse herbicide activity screening", "settings": "pre-emerge, phytotoxicity rating 0-100 at 14 days after application", "how_it_was_run": "as §2"}, "[19]": {"tested_on": "velvetleaf (Abutilon theophrasti, ABUTH)", "test": "Pre-emerge test, greenhouse herbicide activity screening", "settings": "pre-emerge, phytotoxicity rating 0-100 at 14 days after application", "how_it_was_run": "as §2"}, "[20]": {"tested_on": "ivyleaf morningglory (Ipomoea hederacea, IPOHE)", "test": "Pre-emerge test, greenhouse herbicide activity screening", "settings": "pre-emerge, phytotoxicity rating 0-100 at 14 days after application", "how_it_was_run": "as §2"}, "[21]": {"tested_on": "lambsquarters (Chenopodium album, CHEAL)", "test": "Pre-emerge test, greenhouse herbicide activity screening", "settings": "pre-emerge, phytotoxicity rating 0-100 at 14 days after application", "how_it_was_run": "as §2"}, "[22]": {"tested_on": "barnyardgrass (Echinochloa crus-galli, ECHCG)", "test": "Pre-emerge test, greenhouse herbicide activity screening", "settings": "pre-emerge, phytotoxicity rating 0-100 at 14 days after application", "how_it_was_run": "as §2"}, "[23]": {"tested_on": "large crabgrass (Digitaria sanguinalis, DIGSA)", "test": "Pre-emerge test, greenhouse herbicide activity screening", "settings": "pre-emerge, phytotoxicity rating 0-100 at 14 days after application", "how_it_was_run": "as §2"}}, "data": [{"compound": "COc1c(Cl)cc(F)c(-n2ncc(C(F)(F)F)cc2=O)c1NC(=O)c1ccc2ccccc2c1", "note": "[Compound 11-6, 2-(4-chloro-6-fluoro-3-methoxy-2-naphthoylamidophenyl)-5-trifluoromethylpyridazin-3-one]", "values": [{"measurement": "Pre-emerge Herbicidal Activity CORN", "setting": "[1]; rate 63 g ai/ha", "result": 0}, {"measurement": "Pre-emerge Herbicidal Activity CORN", "setting": "[1]; rate 250 g ai/ha", "result": 20}, {"measurement": "Pre-emerge Herbicidal Activity RICE", "setting": "[2]; rate 63 g ai/ha", "result": 0}, {"measurement": "Pre-emerge Herbicidal Activity RICE", "setting": "[2]; rate 250 g ai/ha", "result": 50}, {"measurement": "Post-emerge Herbicidal Activity CORN", "setting": "[3]; 63 g ai/ha", "result": 0}, {"measurement": "Post-emerge Herbicidal Activity CORN", "setting": "[3]; 250 g ai/ha", "result": 20}, {"measurement": "Post-emerge Herbicidal Activity RICE", "setting": "[4]; 63 g ai/ha", "result": 20}, {"measurement": "Post-emerge Herbicidal Activity RICE", "setting": "[4]; 250 g ai/ha", "result": 60}, {"measurement": "Post-emerge Herbicidal Activity SETVI", "setting": "[5]; 63 g ai/ha", "result": 10}, {"measurement": "Post-emerge Herbicidal Activity SETVI", "setting": "[5]; 250 g ai/ha", "result": 50}, {"measurement": "Post-emerge Herbicidal Activity CASOB", "setting": "[6]; 63 g ai/ha", "result": 100}, {"measurement": "Post-emerge Herbicidal Activity CASOB", "setting": "[6]; 250 g ai/ha", "result": 100}, {"measurement": "Post-emerge Herbicidal Activity AMARE", "setting": "[7]; 63 g ai/ha", "result": 100}, {"measurement": "Post-emerge Herbicidal Activity AMARE", "setting": "[7]; 250 g ai/ha", "result": 100}, {"measurement": "Post-emerge Herbicidal Activity AMBEL", "setting": "[8]; 63 g ai/ha", "result": 100}, {"measurement": "Post-emerge Herbicidal Activity AMBEL", "setting": "[8]; 250 g ai/ha", "result": 100}, {"measurement": "Post-emerge Herbicidal Activity SORHA", "setting": "[9]; 63 g ai/ha", "result": 0}, {"measurement": "Post-emerge Herbicidal Activity SORHA", "setting": "[9]; 250 g ai/ha", "result": 0}, {"measurement": "Post-emerge Herbicidal Activity ABUTH", "setting": "[10]; 63 g ai/ha", "result": 100}, {"measurement": "Post-emerge Herbicidal Activity ABUTH", "setting": "[10]; 250 g ai/ha", "result": 100}, {"measurement": "Post-emerge Herbicidal Activity IPOHE", "setting": "[11]; 63 g ai/ha", "result": 70}, {"measurement": "Post-emerge Herbicidal Activity IPOHE", "setting": "[11]; 250 g ai/ha", "result": 100}, {"measurement": "Post-emerge Herbicidal Activity CHEAL", "setting": "[12]; 63 g ai/ha", "result": 80}, {"measurement": "Post-emerge Herbicidal Activity CHEAL", "setting": "[12]; 250 g ai/ha", "result": 100}, {"measurement": "Post-emerge Herbicidal Activity ECHCG", "setting": "[13]; 63 g ai/ha", "result": 50}, {"measurement": "Post-emerge Herbicidal Activity ECHCG", "setting": "[13]; 250 g ai/ha", "result": 80}, {"measurement": "Post-emerge Herbicidal Activity DIGSA", "setting": "[14]; 63 g ai/ha", "result": 0}, {"measurement": "Post-emerge Herbicidal Activity DIGSA", "setting": "[14]; 250 g ai/ha", "result": 0}, {"measurement": "Pre-emerge Herbicidal Activity AMARE", "setting": "[15]; rate 63 g ai/ha", "result": 100}, {"measurement": "Pre-emerge Herbicidal Activity AMARE", "setting": "[15]; rate 250 g ai/ha", "result": 100}, {"measurement": "Pre-emerge Herbicidal Activity SETVI", "setting": "[16]; rate 63 g ai/ha", "result": 100}, {"measurement": "Pre-emerge Herbicidal Activity SETVI", "setting": "[16]; rate 250 g ai/ha", "result": 100}, {"measurement": "Pre-emerge Herbicidal Activity CASOB", "setting": "[17]; rate 63 g ai/ha", "result": 20}, {"measurement": "Pre-emerge Herbicidal Activity CASOB", "setting": "[17]; rate 250 g ai/ha", "result": 99}, {"measurement": "Pre-emerge Herbicidal Activity SORHA", "setting": "[18]; rate 63 g ai/ha", "result": 0}, {"measurement": "Pre-emerge Herbicidal Activity SORHA", "setting": "[18]; rate 250 g ai/ha", "result": 40}, {"measurement": "Pre-emerge Herbicidal Activity ABUTH", "setting": "[19]; rate 63 g ai/ha", "result": 95}, {"measurement": "Pre-emerge Herbicidal Activity ABUTH", "setting": "[19]; rate 250 g ai/ha", "result": 100}, {"measurement": "Pre-emerge Herbicidal Activity IPOHE", "setting": "[20]; rate 63 g ai/ha", "result": 0}, {"measurement": "Pre-emerge Herbicidal Activity IPOHE", "setting": "[20]; rate 250 g ai/ha", "result": 80}, {"measurement": "Pre-emerge Herbicidal Activity CHEAL", "setting": "[21]; rate 63 g ai/ha", "result": 100}, {"measurement": "Pre-emerge Herbicidal Activity CHEAL", "setting": "[21]; rate 250 g ai/ha", "result": 100}, {"measurement": "Pre-emerge Herbicidal Activity ECHCG", "setting": "[22]; rate 63 g ai/ha", "result": 90}, {"measurement": "Pre-emerge Herbicidal Activity ECHCG", "setting": "[22]; rate 250 g ai/ha", "result": 100}, {"measurement": "Pre-emerge Herbicidal Activity DIGSA", "setting": "[23]; rate 63 g ai/ha", "result": 100}, {"measurement": "Pre-emerge Herbicidal Activity DIGSA", "setting": "[23]; rate 250 g ai/ha", "result": 100}]}]}
